Laboratory results from patent publication EP0590919A1, “Therapeutic agents for parkinson's disease” (KYOWA HAKKO KOGYO CO., LTD., priority 1992, dated 1994).

Columns and labels:
dd-strain male mice = experiment: Acute toxicity test (minimum lethal dose, oral); format: in vivo; details: oral administration, three mice per group, mortality seven days after administration
Experimental: Test compounds were orally administered to groups of dd-strain male mice weighing 20 ± 1 g, each group consisting of three mice. Seven days after the administration, minimum lethal dose (MLD) of each compound was determined by observing the mortality.

A₂ receptor [1] = biological target: T1, A₂ receptor (Rattus norvegicus, UniProt P30543); experiment: Adenosine A₂ receptor binding test (³H-CGS 21680 binding); details: [^3H]CGS 21680 was used, rat corpus striatum, read-out: A2 Receptor Inhibition (%); for inhibition at 1 µM: 10^-6M; for inhibition at 0.1 µM: 10^-7M
T1 construct: from tissue; host or cells: rat corpus striatum membrane preparation
Experimental: (§1) The similar procedure as in the above-described adenosine A₁ receptor binding test was repeated using rat corpus striatum to obtain the final precipitate of the tissue thereof. The precipitate was suspended in 50 mM Tris HCl buffer containing 10 mM magnesium chloride and 0.02 unit/mg tissue of adenosine deaminase (manufactured by Sigma Co.) to give a tissue concentration of 5 mg (wet weight)/ml.
The similar procedure as above was repeated to determine the radioactivity bound to the A₂ receptors using 50 µl of CGS 21680 labeled with tritium [³H-2-[p-(2-carboxyethyl)-phenethylamino]-5'-(N-ethylcarboxamide)adenosine: 40 Ci/mmol, manufactured by New England Nuclear Co. (J. Pharmacol. Exp. Ther., 251, 888 (1989)] (final concentration: 4.0 nM) in place of 50 µl of the mixture of N-ethylcarboxamidoadenosine labeled with tritium (³H-NECA: 26 Ci/mmol, manufactured by Amersham Co.) (final concentration: 3.8 nM) and cyclopentyladenosine (CPA, manufactured by Sigma Co.) (final concentration: 50 nM).
The inhibition rate of the test compound against the binding of A₂ receptors (³H-CGS 21680 binding) was calculated by the following equation: [formula] [Notes] • 1. "B" means the amount of radioactivity of ³H-CGS 21680 bound in the presence of a test compound at a concentration shown in Table 4. • 2. "T" means the amount of radioactivity of ³H-CGS 21680 bound in the absence of a test compound. • 3. "N" means the amount of radioactivity of ³H-CGS 21680 bound in the presence of 100 µM CPA.

A₂ receptor [2] = biological target: T1, A₂ receptor; experiment: Adenosine A₂ receptor binding test (³H-NECA binding); details: ³H-NECA binding, rat corpus striatum, read-out: Inhibition (%) A₂ Receptor; for inhibition at 1 µM: 10⁻⁶M; for inhibition at 0.1 µM: 10⁻⁷M
Experimental: as §1
The mixture solution was allowed to stand at 25°C for 120 minutes and then treated in the same manner as in the adenosine A₁ receptor binding test to determine the radioactivity bound to the A₂ receptors.
The inhibition rate of the test compound against the binding of A₂ receptor (³H-NECA binding) was calculated by the following equation: [formula] [Notes] • 1.

[3] = test system: Haloperidol-Induced Catalepsy; experiment: Effect on haloperidol-induced catalepsy; format: in vivo, mice; details: 10 mg/kg orally; for Number of the Animals Showing Remission: of five mice, catalepsy score not more than 4 points; for Remission Rate (%): rate of decrease in total score based on control group; for Total Score: total catalepsy score of five mice (25 points at the full), haloperidol 1.0 mg/kg i.p.
Experimental: Haloperidol (Janssen Pharmaceutica) suspended in 0.3% CMC was intraperitoneally administered to each mouse at a dose of 1.0 mg/kg. Test compounds were suspended in 0.3% CMC or in injectable distilled water (Otsuka Pharmaceutical Co., Ltd.) containing Tween 80. L-DOPA (Kyowa Hakko Kogyo Co., Ltd.) and benserazide hydrochloride (Kyowa Hakko Kogyo Co., Ltd.) were suspended in 0.3% CMC. One hour after the haloperidol administration, the test compound suspensions and the control suspension [injectable distilled water (Otsuka Pharmaceutical Co., Ltd.) containing Tween 80] containing no test compound were orally administered to separate groups of the mice (0.1 ml per 10 g of body weight). One hour after the administration of the test compound, the forelimbs of each mouse and subsequently the hindlimbs of the same mouse were placed on a 4.5 cm-high, 1.0 cm-wide bar and catalepsy was estimated. […] The catalepsy score and the standard of judgment are shown below. […] The number of the animals showing remission against catalepsy is the number of the mice for which the catalepsy score was not more than 4 points. […] The ED₅₀ values were calculated by Probit analysis.

T1 sequence (P30543 whole entry): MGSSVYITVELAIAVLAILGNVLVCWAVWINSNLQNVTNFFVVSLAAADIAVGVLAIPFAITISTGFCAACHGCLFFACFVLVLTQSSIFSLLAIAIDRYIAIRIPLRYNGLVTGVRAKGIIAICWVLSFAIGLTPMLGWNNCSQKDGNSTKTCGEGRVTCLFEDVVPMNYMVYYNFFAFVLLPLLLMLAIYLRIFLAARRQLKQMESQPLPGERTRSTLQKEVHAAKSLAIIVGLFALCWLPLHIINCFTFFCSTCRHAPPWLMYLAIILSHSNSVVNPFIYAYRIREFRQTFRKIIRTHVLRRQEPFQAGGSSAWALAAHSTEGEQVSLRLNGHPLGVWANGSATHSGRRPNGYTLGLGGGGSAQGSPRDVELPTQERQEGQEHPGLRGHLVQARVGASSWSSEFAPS

Compound	MLD (dd-strain male mice) [mg/kg]	inhibition at 1 µM (A₂ receptor [1]) [%]	inhibition at 0.1 µM (A₂ receptor [1]) [%]	inhibition at 1 µM (A₂ receptor [2]) [%]	inhibition at 0.1 µM (A₂ receptor [2]) [%]	Number of the Animals Showing Remission [3]	Remission Rate (%) [3] [%]	Total Score [3]
CCn1c(=O)c2[nH]c(/C=C/c3cccc(OC)c3)nc2n(CC)c1=O [Compound 39, (E)-1,3-Diethyl-8-(3-methoxystyryl)xanthine]	> 100	88	80					
CCCCOc1ccc(/C=C/c2nc3c([nH]2)c(=O)n(CC)c(=O)n3CC)cc1 [Compound 41, (E)-8-(4-Butoxystyryl)-1,3-diethylxanthine]	> 100	52	27					
CCCCOc1ccc(/C=C/c2nc3c(c(=O)n(CC)c(=O)n3CC)n2C)cc1 [Compound 42, (E)-8-(4-Butoxystyryl)-1,3-diethyl-7-methylxanthine]	> 100	87	46					
CCn1c(=O)c2[nH]c(/C=C/c3ccc(C)cc3)nc2n(CC)c1=O [Compound 43, (E)-1,3-Diethyl-8-(4-methylstyryl)xanthine]	> 100	70	68					
CCn1c(=O)c2[nH]c(/C=C/c3ccc(OC)c(C)c3)nc2n(CC)c1=O [Compound 47, (E)-1,3-Diethyl-8-(4-methoxy-3-methylstyryl)xanthine]	> 100	92	67					
CCn1c(=O)c2c(nc(/C=C/c3ccc(OC)c(C)c3)n2C)n(CC)c1=O [Compound 48, (E)-1,3-Diethyl-8-(4-methoxy-3-methylstyryl)-7-methylxanthine]	> 100	99	83					
CCn1c(=O)c2c(nc(/C=C/c3cc(OC)cc(OC)c3)n2C)n(CC)c1=O [Compound 68, (E)-8-(3,5-Dimethoxystyryl)-1,3-diethyl-7-methylxanthine]	> 300			88	81	5	80	5
CCn1c(=O)c2c(nc(/C=C/c3cccc(Cl)c3)n2C)n(CC)c1=O [Compound 70, (E)-8-(3-Chlorostyryl)-1,3-diethyl-7-methylxanthine]	> 300			84	76	4	44	14
CCn1c(=O)c2c(nc(/C=C/c3ccc(C(F)(F)F)cc3)n2C)n(CC)c1=O [Compound 74, (E)-1,3-Diethyl-7-methyl-8-(4-trifluoromethylstyryl)xanthine]	> 300	87	59					
CCn1c(=O)c2c(nc(/C(F)=C\c3ccccc3)n2C)n(CC)c1=O [Compound 76, (E)-1,3-Diethyl-8-(α-fluorostyryl)-7-methylxanthine]	> 100			69	30	4	40	15
CCn1c(=O)c2[nH]c(/C=C/c3ccc(Br)cc3)nc2n(CC)c1=O [Compound 77, (E)-8-(4-Bromostyryl)-1,3-diethylxanthine]	> 100	54	54					
CCn1c(=O)c2[nH]c(/C=C/c3cccc(OC(F)(F)F)c3)nc2n(CC)c1=O [Compound 79, (E)-1,3-Diethyl-8-(3-trifluoromethoxystyryl)xanthine]	> 100	79	53					
CCn1c(=O)c2c(nc(/C=C/c3cccc(OC(F)(F)F)c3)n2C)n(CC)c1=O [Compound 80, (E)-1,3-Diethyl-7-methyl-8-(3-trifluoromethoxystyryl)xanthine]	> 100	86	72					
CCn1c(=O)c2[nH]c(/C=C/c3ccc(OCOC)cc3)nc2n(CC)c1=O [Compound 81, (E)-1,3-Diethyl-8-(4-methoxymethoxystyryl)xanthine]	> 100	95	78					
CCn1c(=O)c2[nH]c(/C=C/c3ccc(F)cc3)nc2n(CC)c1=O [Compound 83, (E)-1,3-Diethyl-8-(4-fluorostyryl)xanthine]	> 100	70	75					
CCn1c(=O)c2[nH]c(/C=C/c3cc(F)cc(F)c3)nc2n(CC)c1=O [Compound 87, (E)-8-(3,5-Difluorostyryl)-1,3-diethylxanthine]	> 100	66	59					
CCn1c(=O)c2[nH]c(/C=C/c3cccc([N+](=O)[O-])c3)nc2n(CC)c1=O [Compound 89, (E)-1,3-Diethyl-8-(3-nitrostyryl)xanthine]	> 100	78	59					
CCn1c(=O)c2[nH]c(/C=C/c3cccc(Br)c3)nc2n(CC)c1=O [Compound 91, (E)-8-(3-Bromostyryl)-1,3-diethylxanthine]	> 100	51	9					
CCn1c(=O)c2[nH]c(/C=C/c3cccc(C(F)(F)F)c3)nc2n(CC)c1=O [Compound 93, (E)-1,3-Diethyl-8-(3-trifluoromethylstyryl)xanthine]	> 100	85	53					
CCn1c(=O)c2c(nc(/C=C/c3cccc(C(F)(F)F)c3)n2C)n(CC)c1=O [Compound 94, (E)-1,3-Diethyl-7-methyl-8-(3-trifluoromethylstyryl)xanthine]	> 100	98	71					
CCn1c(=O)c2[nH]c(/C=C/c3cc4c(cc3Br)OCO4)nc2n(CC)c1=O [Compound 95, (E)-8-(2-Bromo-4,5-methylenedioxystyryl)-1,3-diethylxanthine]	> 100	89	75					
CCn1c(=O)c2c(nc(/C=C/c3cc4c(cc3Br)OCO4)n2C)n(CC)c1=O [Compound 96, (E)-8-(2-Bromo-4,5-methylenedioxystyryl)-1,3-diethyl-7-methylxanthine]	> 100	101	84					
CCn1c(=O)c2[nH]c(/C=C/c3ccccc3F)nc2n(CC)c1=O [Compound 97, (E)-1,3-Diethyl-8-(2-fluorostyryl)xanthine]	> 100	87	66					
CCn1c(=O)c2c(nc(/C=C/c3ccccc3F)n2C)n(CC)c1=O [Compound 98, (E)-1,3-Diethyl-8-(2-fluorostyryl)-7-methylxanthine]	> 100	95	92					
CCn1c(=O)c2c(nc(/C=C/c3ccc(-c4ccccc4)cc3)n2C)n(CC)c1=O [Compound 101, (E)-1,3-Diethyl-7-methyl-8-(4-phenylstyryl)xanthine]	> 100	76	36					
CCn1c(=O)c2[nH]c(/C=C/c3ccc(OC)c(F)c3)nc2n(CC)c1=O [Compound 102, (E)-1,3-Diethyl-8-(3-fluoro-4-methoxystyryl)xanthine]	> 100	94	70					
